These results are taken from patent publication US20050119251A1, “Nicotinamide derivatives and their use as therapeutic agents” (priority 2001, published 2005).

`COc1nc(N2CCN(C(=O)c3ccccc3C(F)(F)F)CC2)ccc1C(=O)NCCC1CC1` [Example 7, N-(2-cyclopropylethyl)-2-methoxy-6-(4-(2-trifluoromethylbenzoyl)piperazin-1-yl]nicotinamide]: the melting point was 49 to 51 °C.
